Test results from US4315014A, “Antibacterial amide compounds and pharmaceutical composition containing the same” (Warner-Lambert Company, priority 1980, dated 1982).
Converted amounts (≈) assume the structure as drawn.

Experiments:
Assay type in all cases: cell-based
[1] = system: Pseudomonas aeruginosa #28; experiment: Minimal Inhibitory Concentration, Pseudomonas aeruginosa #28
Entero. cloacae = experiment: Minimal Inhibitory Concentration, Entero. cloacae; conditions: Enterobacter cloacae
Serr. marces. = experiment: Minimal Inhibitory Concentration, Serr. marces.
Klebs. pneu. = experiment: Minimal Inhibitory Concentration, Klebs. pneu.
Staph. aureus S18713 = experiment: Minimal Inhibitory Concentration, Staph. aureus S18713; conditions: Staphylococcus aureus

Row | SMILES | MIC [1] | MIC (Entero. cloacae) | MIC (Serr. marces.) | MIC (Klebs. pneu.) | MIC (Staph. aureus S18713)
1 | CC1(C)S[C@@H]2[C@H](NC(=O)[C@H](NC(=O)c3ccc(-c4cccc(NS(C)(=O)=O)c4)[nH]c3=O)c3ccccc3)C(=O)N2[C@H]1C(=O)O [Example 1, N-[6-[3-(Methylsulfonylamino)phenyl]-1,2-dihydro-2-oxonicotinoyl]ampicillin] | 12.5 µg/mL (≈ 19.5 µM) | 6.3 µg/mL (≈ 9.85 µM) | 25 µg/mL (≈ 39.1 µM) | 1.6 µg/mL (≈ 2.5 µM) | > 200 µg/mL
2 | CC(=O)OCCCS(=O)(=O)Nc1ccc(-c2ccc(C(=O)N[C@@H](C(=O)N[C@@H]3C(=O)N4[C@@H]3SC(C)(C)[C@@H]4C(=O)O)c3ccccc3)c(=O)[nH]2)cc1 [Example 7, N-[6-[4-[3-(acetyloxy)propylsulfonylamino]phenyl]-1,2-dihydro-2-oxonicotinoyl]ampicillin] | 6.3 µg/mL (≈ 8.68 µM) | 6.3 µg/mL (≈ 8.68 µM) | 100 µg/mL (≈ 138 µM) | 3.1 µg/mL (≈ 4.27 µM) | 100 µg/mL (≈ 138 µM)
3 | CC1(C)S[C@@H]2[C@H](NC(=O)[C@H](NC(=O)c3ccc(-c4ccc(NS(=O)(=O)CCc5ccncc5)cc4)[nH]c3=O)c3ccccc3)C(=O)N2[C@H]1C(=O)O [Example 8] | 6.3 µg/mL (≈ 8.62 µM) | 6.3 µg/mL (≈ 8.62 µM) | 100 µg/mL (≈ 137 µM) | 3.1 µg/mL (≈ 4.24 µM) | 100 µg/mL (≈ 137 µM)
4 | CC1(C)S[C@@H]2[C@H](NC(=O)[C@H](NC(=O)c3ccc(-c4cccc(NS(=O)(=O)c5cccnc5)c4)[nH]c3=O)c3ccccc3)C(=O)N2[C@H]1C(=O)O [Example 10, N-[6-[3-(3-pyridinylsulfonylamino)phenyl]-1,2-dihydro-2-oxonicotinoyl]ampicillin] | 12.5 µg/mL (≈ 17.8 µM) | 12.5 µg/mL (≈ 17.8 µM) | 100 µg/mL (≈ 142 µM) | 6.3 µg/mL (≈ 8.96 µM) | > 200 µg/mL

Continued, values first:

Row | MIC [1] | MIC (Entero. cloacae) | MIC (Serr. marces.) | MIC (Klebs. pneu.) | MIC (Staph. aureus S18713) | SMILES
5 | 3.1 µg/mL (≈ 4.85 µM) | 6.3 µg/mL (≈ 9.85 µM) | 50 µg/mL (≈ 78.2 µM) | 3.1 µg/mL (≈ 4.85 µM) | 100 µg/mL (≈ 156 µM) | CC1(C)S[C@@H]2[C@H](NC(=O)[C@H](NC(=O)c3ccc(-c4ccc(NS(C)(=O)=O)cc4)[nH]c3=O)c3ccccc3)C(=O)N2[C@H]1C(=O)O [Example 2, N-[6-[4-(Methylsulfonylamino)phenyl]-1,2-dihydro-2-oxonicotinoyl]ampicillin]
6 | 1.6 µg/mL (≈ 2.44 µM) | 3.1 µg/mL (≈ 4.73 µM) | 100 µg/mL (≈ 153 µM) | 3.1 µg/mL (≈ 4.73 µM) | 100 µg/mL (≈ 153 µM) | CC1(C)S[C@@H]2[C@H](NC(=O)[C@H](NC(=O)c3ccc(-c4ccc(NS(C)(=O)=O)cc4)[nH]c3=O)c3ccc(O)cc3)C(=O)N2[C@H]1C(=O)O [Example 3]
7 | 3.1 µg/mL (≈ 4.64 µM) | 6.3 µg/mL (≈ 9.43 µM) | 50 µg/mL (≈ 74.9 µM) | 3.1 µg/mL (≈ 4.64 µM) | 100 µg/mL (≈ 150 µM) | CCCS(=O)(=O)Nc1ccc(-c2ccc(C(=O)N[C@@H](C(=O)N[C@@H]3C(=O)N4[C@@H]3SC(C)(C)[C@@H]4C(=O)O)c3ccccc3)c(=O)[nH]2)cc1 [Example 4, N-[6-[4-(Propylsulfonylamino)phenyl]-1,2-dihydro-2-oxonictinoyl]ampicillin]
8 | 6.3 µg/mL (≈ 9.08 µM) | 6.3 µg/mL (≈ 9.08 µM) | 200 µg/mL (≈ 288 µM) | 3.1 µg/mL (≈ 4.47 µM) | 200 µg/mL (≈ 288 µM) | CC1(C)S[C@@H]2[C@H](NC(=O)[C@H](NC(=O)c3ccc(-c4ccc(NS(=O)(=O)C(F)(F)F)cc4)[nH]c3=O)c3ccccc3)C(=O)N2[C@H]1C(=O)O [Example 5, N-[6-[4-(Trifluoromethylsulfonylamino)phenyl]-1,2-dihydro-2-oxonicotinoyl]ampicillin]
9 | 12.5 µg/mL (≈ 17.6 µM) | 6.3 µg/mL (≈ 8.88 µM) | 50 µg/mL (≈ 70.5 µM) | 25 µg/mL (≈ 35.2 µM) | 25 µg/mL (≈ 35.2 µM) | CC1(C)S[C@@H]2[C@H](NC(=O)[C@H](NC(=O)c3ccc(-c4ccc(NS(=O)(=O)C(F)(F)F)cc4)[nH]c3=O)c3ccc(O)cc3)C(=O)N2[C@H]1C(=O)O [Example 6, N[6-[4-(Trifluoromethylsulfonylamino)phenyl]-1,2-dihydro-2-oxonicotinoyl]amoxicillin]
10 | 12.5 µg/mL (≈ 17.8 µM) | 12.5 µg/mL (≈ 17.8 µM) | 100 µg/mL (≈ 142 µM) | 6.3 µg/mL (≈ 8.96 µM) | 100 µg/mL (≈ 142 µM) | CC1(C)S[C@@H]2[C@H](NC(=O)[C@H](NC(=O)c3ccc(-c4ccc(NS(=O)(=O)c5cccnc5)cc4)[nH]c3=O)c3ccccc3)C(=O)N2[C@H]1C(=O)O [Example 9, N-[6-[4-(3-pyridinylsulfonylamino)phenyl]-1,2-dihydro-2-oxonicotinoyl]ampicillin]
